pIC50: −log10 of the molar value.
Legend:
recombinant human PDE5 = biological target: T1, recombinant human PDE5 (Homo sapiens, UniProt O76074); experiment: In vitro PDE5 inhibitory activity (IMAP FP phosphodiesterase assay); assay type: biochemical; details: purified PDE5, 50 nM TAMRA-cGMP, 1.5 h at 30 °C; 10 concentrations, at least two replicates; read-out: PDE5 Inhibition IC50
T1 construct: purchased BPS Biosciences, San Diego, CA, USA
Method: Phosphodiesterase Assay: 5 U/mL of purified PDE5 (BPS Biosciences, San Diego, CA, USA) was added to the wells of black 96-well non-binding plates. Immediately, the protein was treated with the compound or vehicle control and 50 nM TAMRA-cGMP and 50 nM Fluourescein-cAMP (Molecular Devices, Sunnyvale, CA, USA) were added to each assay well. The plates were incubated for 1.5 h at 30 °C. After incubation, the IMAP FP Phosphodiesterase Evaluation Assay (Molecular Devices, Sunnyvale, CA, USA) binding reagent was added to each well and the plates were incubated for an additional 30 min at 30 °C. FP was measured according to manufacturer’s specifications using a Biotech Synergy 4 plate reader. PDE activity was expressed by an IC50 value (50% inhibitory concentration). Data analysis was done through dose-response analysis, which was repeated at least twice to confirm the reproducibility of the IC50 values.
All the synthesized final THβC compounds were tested for their ability to inhibit recombinant human PDE5. Most of the compounds were evaluated in two steps. The first step was the determination of the percentage inhibition at a screening dose of 10 μM performed in triplicate. For compounds displaying a percentage of inhibition >50%, the IC50 was then determined by testing a range of 10 concentrations with at least two replicates per concentration (Table 2).

[1] = biological target: phosphodiesterase-5 (PDE5); details: previously reported tadalafil analogues, introduction; cited from earlier work

SMILES | pIC50 (recombinant human PDE5) | melting point [°C] | pIC50 [1]
O=C1[C@@H]2Cc3c([nH]c4ccccc34)[C@@H](c3ccc(Cl)cc3)N2C(=O)CN1CCO [Compound 6m, (6R,12aS)-6-(4-Chloro-phenyl)-2-(2-hydroxy-ethyl)-2,3,6,7,12,12a-hexahydro-pyrazino[1’,2’:1,6]pyrido[3,4-b]indole-1,4-dione] | < 5.00 | 202 to 206 | 
O=C1[C@@H]2Cc3c([nH]c4ccccc34)[C@@H](c3ccc(Cl)cc3)N2C(=O)CN1CCCCO [Compound 6o, (6R,12aS)-6-(4-Chloro-phenyl)-2-(4-hydroxy-butyl)-2,3,6,7,12,12a-hexahydropyrazino[1’,2’:1,6]pyrido[3,4-b]indole-1,4-dione] | 5.64 | 199 to 203 | 
O=C1[C@H]2Cc3c([nH]c4ccccc34)[C@H](c3ccc(Cl)cc3)N2C(=O)CN1CCCCO [Compound 6g, (6S,12aR)-6-(4-Chloro-phenyl)-2-(4-hydroxy-butyl)-2,3,6,7,12,12a-hexahydropyrazino[1’,2’:1,6]pyrido[3,4-b]indole-1,4-dione] | < 5.00 | 200 to 203 | 
CCN1CC(=O)N2[C@H](c3ccc(Cl)cc3)c3[nH]c4ccccc4c3C[C@@H]2C1=O [Compound 2] |  |  | 8.52
O=C1[C@H]2Cc3c([nH]c4ccccc34)[C@@H](c3ccc(Cl)cc3)N2C(=O)CN1CCO [Compound 6a, (6R,12aR)6-(4-Chloro-phenyl)-2-(2-hydroxy-ethyl)-2,3,6,7,12,12a-hexahydro-pyrazino[1’,2’:1,6]pyrido[3,4-b]indole-1,4-dione] | < 5.00 | 230 to 233 | 
NCCCCN1CC(=O)N2[C@@H](c3ccc(Cl)cc3)c3[nH]c4ccccc4c3C[C@@H]2C1=O [Compound 6h, (6S,12R)-2-(4-Amino-butyl)-6-(4-chloro-phenyl)-2,3,6,7,12,12a-hexahydro-pyrazino[1’,2’:1,6]pyrido[3,4-b]indole-1,4-dione] | 5.51 | 200 to 202 | 
CCN1CC(=O)N2[C@H](c3ccc(Br)cc3)c3[nH]c4ccccc4c3C[C@@H]2C1=O [Compound 3] |  |  | 8.52
O=C1[C@@H]2Cc3c([nH]c4ccccc34)[C@H](c3ccc(Cl)cc3)N2C(=O)CN1CCO [Compound 6i, (6S,12aS)-6-(4-Chloro-phenyl)-2-(2-hydroxy-ethyl)-2,3,6,7,12,12a-hexahydro-pyrazino[1’,2’:1,6]pyrido[3,4-b]indole-1,4-dione] | < 5.00 | 231 to 233 | 

More lines, main results first:

pIC50 (recombinant human PDE5) | melting point [°C] | SMILES | pIC50 [1]
< 5.00 | 200 to 204 | NCCN1CC(=O)N2[C@@H](c3ccc(Cl)cc3)c3[nH]c4ccccc4c3C[C@@H]2C1=O [Compound 6f, (6S,12aR)-2-(2-Amino-ethyl)-6-(4-chloro-phenyl)-2,3,6,7,12,12a-hexahydro-pyrazino[1’,2’:1,6]pyrido[3,4-b]indole-1,4-dione] | 
< 5.00 | 231 to 233 | NCCN1CC(=O)N2[C@@H](c3ccc(Cl)cc3)c3[nH]c4ccccc4c3C[C@H]2C1=O [Compound 6j, (6S,12aS)-2-(2-Amino-ethyl)-6-(4-chloro-phenyl)-2,3,6,7,12,12a-hexahydro-pyrazino[1’,2’:1,6]pyrido[3,4-b]indole-1,4-dione] | 
5.44 | 231 to 234 | NCCN1CC(=O)N2[C@H](c3ccc(Cl)cc3)c3[nH]c4ccccc4c3C[C@@H]2C1=O [Compound 6b, (6R,12aR)-2-(2-Amino-ethyl)-6-(4-chloro-phenyl)-2,3,6,7,12,12a-hexahydro-pyrazino[1’,2’:1,6]pyrido[3,4-b]indole-1,4-dione] | 
< 5.00 | 200 to 204 | NCCN1CC(=O)N2[C@H](c3ccc(Cl)cc3)c3[nH]c4ccccc4c3C[C@H]2C1=O [Compound 6n, (6R,12aS)-2-(2-Amino-ethyl)-6-(4-chloro-phenyl)-2,3,6,7,12,12a-hexahydro-pyrazino[1’,2’:1,6]pyrido[3,4-b]indole-1,4-dione] | 

From publication PMC5064235, “Structure-Based Design of Novel Tetrahydro-Beta-Carboline Derivatives with a Hydrophilic Side Chain as Potential Phosphodiesterase Inhibitors” (Scientia Pharmaceutica, 2015)
